≈ marks a conversion by molar mass, not a printed value.

In the experiment the test system is P388. The experiment in a line: Cytotoxicity against P388 mouse leukemia cells. Format: functional, cell-based.
What is called IC50 is the midpoint of a concentration-inhibition curve. A high value points to lower potency. Take `CSc1ncnc2c1ncn2C1CC(COS(N)(=O)=O)C(O)C1O` (centres undefined): the IC50 came to 50 µg/mL (≈ 133 µM).

`Nc1ncnc2c1ncn2[C@@H]1C[C@H](CO)[C@@H](O)[C@H]1O` [ARISTEROMYCIN] came in with an IC50 of 0.5 µg/mL (≈ 1.88 µM).

`COc1ccc(C[C@H](N)C(=O)N[C@H]2[C@@H](O)[C@H](n3cnc4c(N(C)C)ncnc43)O[C@@H]2CO)cc1` [PUROMYCIN] gave an IC50 of 0.5 µg/mL (≈ 1.06 µM).

With `Nc1ncnc2c1ncn2COCCOS(N)(=O)=O`, the IC50 is more than 100 µg/mL.

In turn, `Nc1ncnc2c1nnn2C1CC(CO)C(O)C1O` (centres undefined) returned an IC50 of 0.5 µg/mL (≈ 1.88 µM).

In the case of `Nc1ncnc2c1nnn2C1CC(COS(N)(=O)=O)C(O)C1O` (centres undefined), it took 0.0625 µg/mL (≈ 0.181 µM) to reach half-maximal inhibition (IC50).

For `Nc1ncnc2c1ncn2C1CC(COS(N)(=O)=O)C(O)C1O` (centres undefined), half-maximal inhibition (IC50) required 0.125 µg/mL (≈ 0.363 µM).

With `CN(C)c1ncnc2c1ncn2C1CC(COS(N)(=O)=O)C(O)C1O` (centres undefined), the IC50 was found to be 74 µg/mL (≈ 199 µM). This IC50 is about 590-fold higher than that of the compound before.

In turn, `CNc1ncnc2c1ncn2C1CC(COS(N)(=O)=O)C(O)C1O` (centres undefined) gave an IC50 of 4 µg/mL (≈ 11.2 µM). This IC50 is about 18-fold lower than that of the compound before.
